Assay results from ChEMBL document CHEMBL3886889, “Substituted [1,2,4]triazolo[4,3-a]pyrazines as selective NK-3 receptor antagonists” (2016).

Key:
Neuromedin-K receptor [1] = molecular target: T1, Neuromedin-K receptor (Homo sapiens, UniProt P29371); test: Competitive Binding Assay: The affinity of compounds of the invention for the human NK-3 receptor was determined by measuring the ability of compounds of the invention to competitively and reversibly displace a well-characterized NK-3 radioligand in a concentration-dependent manner.3H-SB222200 Binding Competition Assay with Human NK-3 ReceptorThe ability of compounds of the invention to inhibit the binding of the NK-3 receptor selective antagonist 3H-SB222200 was assessed by an in vitro radioligand binding assay. Membranes were prepared from Chinese hamster ovary recombinant cells stably expressing the human NK-3 receptor. The membranes were incubated with 5 nM 3H-SB222200 (ARC) in a HEPES 25 mM/NaCl 0.1M/CaCl2 1 mM/MgCl2 5 mM/BSA 0.5%/Saponin 10 μg/ml buffer at pH 7.4 and various concentrations of compounds of the invention. The amount of 3H-SB222200 bound to the receptor was determined after filtration by the quantification of membrane associated radioactivity using the TopCount-NXT reader (Packard).
T1 sequence (P29371 whole entry): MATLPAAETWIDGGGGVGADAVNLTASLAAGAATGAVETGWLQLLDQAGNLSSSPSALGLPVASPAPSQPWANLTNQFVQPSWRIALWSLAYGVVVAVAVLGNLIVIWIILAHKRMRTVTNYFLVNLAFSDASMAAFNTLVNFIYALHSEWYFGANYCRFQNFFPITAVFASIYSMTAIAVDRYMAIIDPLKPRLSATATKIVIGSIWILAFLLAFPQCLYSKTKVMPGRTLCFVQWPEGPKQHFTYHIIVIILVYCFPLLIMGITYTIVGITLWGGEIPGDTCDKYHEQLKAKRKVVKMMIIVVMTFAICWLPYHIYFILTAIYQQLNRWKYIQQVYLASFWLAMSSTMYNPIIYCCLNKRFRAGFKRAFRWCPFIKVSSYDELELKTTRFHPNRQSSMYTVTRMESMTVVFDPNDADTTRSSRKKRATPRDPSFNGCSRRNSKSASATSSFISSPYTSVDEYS

Neuromedin-K receptor [2] = molecular target: T1, Neuromedin-K receptor; test: Functional Assay: Chinese Hamster Ovary recombinant cells expressing the human NK-3 receptor and a construct that encodes the photoprotein apoaequorin were used for this assay. The antagonist activity of compounds of the invention is measured following pre-incubation (3 minutes) of the compound (at various concentrations) with the cells, followed by addition of the reference agonist (NKA) at a final concentration equivalent to the EC80 (3 nM) and recording of emitted light (FDSS 6000 Hamamatsu) over the subsequent 90-second period. The intensity of the emitted light is integrated using the reader software. Compound antagonist activity is measured based on the concentration-dependent inhibition of the luminescence response to the addition of Neurokinin A.

CCC1c2nnc(-c3nc(C)ns3)n2CCN1C(=O)c1ccc(F)cc1 (racemic)
Ki (Neuromedin-K receptor [1]): 150 nM | IC50 (Neuromedin-K receptor [2]): 220 nM

Cc1nsc(-c2nnc3n2CCN(C(=O)c2ccc(F)cc2)C3CCO)n1 (racemic)
Ki (Neuromedin-K receptor [1]): 59 nM | IC50 (Neuromedin-K receptor [2]): 170 nM
